Values of other authors, collected in patent US9624424B2, “Large stokes shift dyes” (LIFE TECHNOLOGIES CORPORATION, priority 2009, dated 2017).

Extinction coefficient around 605 nm (commercial dyes emitting at 750-800 nm), ~15,000 M^−1cm^−1:
CCN1C(=CC=CC=CC=CC2=[N+](CCCCCC(=O)O)c3ccc(S(=O)(=O)O)cc3C2(C)C)C(C)(C)c2cc(S(=O)(=O)[O-])ccc21 [Cy7]
CC(C)(C)c1cc(/C=C/C=C/C=C2/N(CCCS(=O)(=O)[O-])c3ccc(S(=O)(=O)[O-])cc3C2(C)CCCC(=O)O)c2ccc(=[N+](CCCS(=O)(=O)[O-])CCCS(=O)(=O)[O-])cc-2o1.[Na+].[Na+].[Na+] (stereo not shown) [Dy734]
CCN1c2cc3c(cc2C(C)=CC1(C)C)C(=CC=CC=CC1=[N+](CCCCCC(=O)O)c2ccc(S(=O)(=O)[O-])cc2C1(C)C)C=C(C(C)(C)C)O3 [Dy750]
AlexaFluor 750 [AF750]
